Broadly, the mortality is the share of the test organisms that died.

Drawing on patent US10251394B2, “Molecules having pesticidal utility, and intermediates, compositions, and processes, related thereto” (Dow AgroSciences LLC, priority 2016, dated 2019), this text covers pest or weed control and mortality for 19 compounds.

Test [1] deals with Beet Armyworm (Spodoptera exigua). Nature of the test: Bioassay on Beet Armyworm (BAW), 128-well diet tray assay. It is filed as in vivo. As to conditions: for pest or weed control at 50 µg/cm2: Beet Armyworm, Table ABC, read-out: BAW rating; for mortality at 0.05 µg/cm2 / mortality at 0.5 µg/cm2 / mortality at 5 µg/cm2: 168 h, second instar larvae, five to seven days, read-out: BAW Percent control (or mortality); for mortality at 0.05 µg/cm2: 0.05 μg/cm^2 on artificial diet; for mortality at 0.5 µg/cm2: 0.5 μg/cm^2 on artificial diet; for mortality at 5 µg/cm2: 5 μg/cm^2 on artificial diet. The method, boiled down: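 Percent mortality, averaged over eight wells, was scored after five to seven days at 25° C under 14:10 light-dark. Each well's diet carried 50 μg/cm^2 of test molecule applied in acetone-water (90:10) and dried before one to five second-instar larvae were added.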

The test system of test [2] is Cabbage Looper (Trichoplusia ni). Nature of the test: Bioassay on Cabbage Looper (CL), 128-well diet tray assay. It is filed as in vivo. As to conditions: for pest or weed control at 50 µg/cm2: Cabbage Looper, Table ABC, read-out: CL rating; for mortality at 0.05 µg/cm2 / mortality at 0.5 µg/cm2 / mortality at 5 µg/cm2: 168 h, second instar larvae, five to seven days, read-out: CL Percent control (or mortality); for mortality at 0.05 µg/cm2: 0.05 μg/cm^2 on artificial diet; for mortality at 0.5 µg/cm2: 0.5 μg/cm^2 on artificial diet; for mortality at 5 µg/cm2: 5 μg/cm^2 on artificial diet. The method, boiled down: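 Mortality after five to seven days at 25° C (14:10 photoperiod), averaged over eight wells per compound. Diet in each well carried 50 μg/cm^2 of dried test molecule and received one to five second-instar larvae.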

In the case of `O=C(N[C@@H]1CON(CC(F)(F)F)C1=O)c1ccc(/C(F)=C/C(c2cc(Cl)c(Cl)c(Br)c2)C(F)(F)F)cc1C(F)(F)F` (stereo partly drawn) [F197, 4-((Z)-3-(3-Bromo-4,5-dichlorophenyl)-1,4,4,4-tetrafluorobut-1-en-1-yl)-N—((R)-3-oxo-2-(2,2,2-trifluoroethyl)isoxazolidin-4-yl)-2-(trifluoromethyl)benzamide], the pest or weed control at 50 µg/cm2 in test [1] and in test [2] was 50 to 100% in each case.

For `O=C(N[C@@H]1CON(CC(F)(F)F)C1=O)c1ccc(/C(F)=C/C(c2cc(Cl)c(Cl)c(Cl)c2)C(F)(F)F)cc1Br` (stereo partly drawn) [F198, 2-Bromo-N—((R)-3-oxo-2-(2,2,2-trifluoroethyl)isoxazolidin-4-yl)-4-((Z)-1,4,4,4-tetrafluoro-3-(3,4,5-trichlorophenyl)but-1-en-1-yl)benzamide], the pest or weed control at 50 µg/cm2 in test [1] and in test [2] was 50 to 100% in each case.

For `O=C(N[C@@H]1CON(CC(F)(F)F)C1=O)c1ccc(/C(F)=C/C(c2cc(Cl)c(Cl)c(C(F)F)c2)C(F)(F)F)cc1C(F)(F)F` (stereo partly drawn) [F199, 4-((Z)-3-(3,4-Dichloro-5-(difluoromethyl)phenyl)-1,4,4,4-tetrafluoro-but-1-enyl)-N—((R)-3-oxo-2-(2,2,2-trifluoroethyl)isoxazolidin-4-yl)-2-(trifluoromethyl)benzamide], the pest or weed control at 50 µg/cm2 in test [1] and in test [2] was 50 to 100% throughout.

Consider `C=Cc1cc(/C(F)=C/C(c2cc(Cl)c(Cl)c(Cl)c2)C(F)(F)F)ccc1C(=O)NCC(=O)NCC(F)(F)F` (stereo not shown) [F200, (Z)—N-(2-Oxo-2-((2,2,2-trifluoroethyl)amino)ethyl)-4-(1,4,4,4-tetrafluoro-3-(3,4,5-trichlorophenyl)but-1-en-1-yl)-2-vinylbenzamide], for which the pest or weed control at 50 µg/cm2 in test [1] and in test [2] was 50 to 100% in each case.

Regarding `C=Cc1cc(/C(F)=C/C(c2cc(Cl)c(Cl)c(Cl)c2)C(F)(F)F)ccc1C(=O)N[C@H](C)C(=O)NCC(F)(F)F` (stereo partly drawn) [F201, N—((R)-1-Oxo-1-((2,2,2-trifluoroethyl)amino)propan-2-yl)-4-((Z)-1,4,4,4-tetrafluoro-3-(3,4,5-trichlorophenyl)but-1-en-1-yl]-2-vinylbenzamide], the pest or weed control at 50 µg/cm2 in test [1] and in test [2] was 50 to 100% in each case.

Take `C[C@@H](NC(=O)c1ccc(/C(F)=C/C(c2cc(F)c(Cl)c(C(F)(F)F)c2)C(F)(F)F)cc1C(F)(F)F)C(=O)NCC(F)(F)F` (stereo partly drawn) [F202, 4-((Z)-3-(4-Chloro-3-fluoro-5-(trifluoromethyl)phenyl)-1,4,4,4-tetrafluorobut-1-en-1-yl)-N—((R)-1-oxo-1-((2,2,2-trifluoroethyl)amino)propan-2-yl)-2-(trifluoromethyl)benzamide]: the pest or weed control at 50 µg/cm2 in test [1] and in test [2] was 50 to 100% in each case.

Take `O=C(CNC(=O)c1ccc(/C(F)=C/C(c2cc(F)c(Cl)c(C(F)(F)F)c2)C(F)(F)F)cc1C(F)(F)F)NCC(F)(F)F` (stereo not shown) [F203, (Z)-4-(3-(4-Chloro-3-fluoro-5-(trifluoromethyl)phenyl)-1,4,4,4-tetrafluoro-but-1-en-1-yl)-N-(2-oxo-2-((2,2,2-trifluoroethyl)amino)ethyl)-2-(trifluoromethyl)benzamide]: the pest or weed control at 50 µg/cm2 in test [1] and in test [2] was 50 to 100% in each case.

On to `C=Cc1cc(/C(F)=C/C(c2cc(Cl)c(Cl)c(Cl)c2)C(F)(F)F)ccc1C(=O)N[C@@H]1CON(CC(F)(F)F)C1=O` (stereo partly drawn) [F204, N—((R)-3-Oxo-2-(2,2,2-trifluoroethyl)isoxazolidin-4-yl)-4-((Z)-1,4,4,4-tetrafluoro-3-(3,4,5-trichlorophenyl)but-1-en-1-yl)-2-vinylbenzamide], for which the pest or weed control at 50 µg/cm2 in test [1] and in test [2] was 50 to 100% throughout.

In the case of `O=C(CNC(=O)c1ccc(/C(F)=C/C(c2ccc(C(F)(F)F)c(Cl)c2)C(F)(F)F)cc1C(F)(F)F)NCC(F)(F)F` (stereo not shown) [F206, (Z)-4-(3-(3-Chloro-4-(trifluoromethyl)phenyl)-1,4,4,4-tetrafluorobut-1-en-1-yl)-N-(2-oxo-2-((2,2,2-trifluoroethyl)amino)ethyl)-2-(trifluoromethyl)benzamide], the pest or weed control at 50 µg/cm2 in test [1] and in test [2] was 50 to 100% in each case.

As for `C[C@@H](NC(=O)c1ccc(/C(F)=C/C(c2cc(Cl)cc(OCC(F)(F)F)c2)C(F)(F)F)cc1C(F)(F)F)C(=O)NCC(F)(F)F` (stereo partly drawn) [F207, 4-((Z)-3-(3-chloro-5-(2,2,2-trifluoroethoxy)phenyl)-1,4,4,4-tetrafluorobut-1-en-1-yl)-N—((R)-1-oxo-1-((2,2,2-trifluoroethyl)amino)propan-2-yl)-2-(trifluoromethyl)benzamide], the pest or weed control at 50 µg/cm2 in test [1] and in test [2] was 50 to 100% in each case.

As to `O=C(CNC(=O)c1ccc(/C(F)=C/C(c2ccc(C(F)(F)F)c(F)c2)C(F)(F)F)cc1C(F)(F)F)NCC(F)(F)F` (stereo not shown) [F211], the pest or weed control at 50 µg/cm2 in test [1] and in test [2] was 50 to 100% throughout.

Take `C[C@@H](NC(=O)c1ccc(/C(F)=C/C(c2cc(Cl)cc(C#CC(C)(C)C)c2)C(F)(F)F)cc1C(F)(F)F)C(=O)NCC(F)(F)F` (stereo partly drawn) [F212, 4-((Z)-3-(3-Chloro-5-(3,3-dimethylbut-1-yn-1-yl)phenyl)-1,4,4,4-tetrafluorobut-1-en-1-yl)-N—((R)-1-oxo-1-((2,2,2-trifluoroethyl)amino)propan-2-yl)-2-(trifluoromethyl)benzamide]: the pest or weed control at 50 µg/cm2 in test [1] and in test [2] was 50 to 100% each time.

As to `C[C@@H](NC(=O)c1ccc(/C(F)=C/C(c2cc(Cl)cc(C(F)F)c2)C(F)(F)F)cc1C(F)(F)F)C(=O)NCC(F)(F)F` (stereo partly drawn) [F213, 4-((Z)-3-(3-Chloro-5-(difluoromethyl)phenyl)-1,4,4,4-tetrafluorobut-1-en-1-yl)-N—((R)-1-oxo-1-((2,2,2-trifluoroethyl)amino)propan-2-yl)-2-(trifluoromethyl)benzamide], the pest or weed control at 50 µg/cm2 in test [1] and in test [2] was 50 to 100% each time.

As for `C[C@@H](NC(=O)c1ccc(/C(F)=C/C(c2cc(F)c(F)c(Br)c2)C(F)(F)F)cc1C(F)(F)F)C(=O)NCC(F)(F)F` (stereo partly drawn) [F214, 4-((Z)-3-(3-Bromo-4,5-difluorophenyl)-1,4,4,4-tetrafluorobut-1-en-1-yl)-N—((R)-1-oxo-1-((2,2,2-trifluoroethyl)amino)propan-2-yl)-2-(trifluoromethyl)benzamide], the pest or weed control at 50 µg/cm2 in test [1] and in test [2] was 50 to 100% throughout.

As to `O=C(CNC(=O)c1ccc(/C(F)=C/C(c2ccc(F)c(F)c2)C(F)(F)F)cc1C(F)(F)F)NCC(F)(F)F` (stereo not shown) [F215, (Z)-4-(3-(3,4-difluorophenyl)-1,4,4,4-tetrafluorobut-1-en-1-yl)-N-(2-oxo-2-((2,2,2-trifluoroethyl)amino)ethyl)-2-(trifluoromethyl)benzamide], the pest or weed control at 50 µg/cm2 in test [1] and in test [2] was 50 to 100% each time.

Consider `C[C@@H](NC(=O)c1ccc(/C(F)=C/C(c2cc(F)c(F)c(C#CC(C)(C)C)c2)C(F)(F)F)cc1C(F)(F)F)C(=O)NCC(F)(F)F` (stereo partly drawn) [F216, 4-((Z)-3-(3-(3,3-Dimethylbut-1-yn-1-yl)-4,5-difluorophenyl)-1,4,4,4-tetrafluorobut-1-en-1-yl)-N—((R)-1-oxo-1-((2,2,2-trifluoroethyl)amino)propan-2-yl)-2-(trifluoromethyl)benzamide], for which the pest or weed control at 50 µg/cm2 in test [1] and in test [2] was 50 to 100% throughout.

In the case of `O=C(CNC(=O)c1ccc(/C(F)=C/C(c2cc(F)c(F)c(Br)c2)C(F)(F)F)cc1C(F)(F)F)NCC(F)(F)F` (stereo not shown) [F217, (Z)-4-(3-(3-Bromo-4,5-difluorophenyl)-1,4,4,4-tetrafluorobut-1-en-1-yl)-N-(2-oxo-2-((2,2,2-trifluoroethyl)amino)ethyl)-2-(trifluoromethyl)benzamide], the pest or weed control at 50 µg/cm2 in test [1] and in test [2] was 50 to 100% each time.

In the case of `O=C(CNC(=O)c1ccc(/C(F)=C/C(c2cc(Cl)c(Cl)c(Cl)c2)C(F)(F)F)cc1)NCC(F)(F)F` (stereo not shown) [FC1, (Z)—N-(2-Oxo-2-((2,2,2-trifluoroethyl)amino)ethyl)-4-(1,4,4,4-tetrafluoro-3-(3,4,5-trichlorophenyl)but-1-en-1-yl)benzamide], in test [1], the mortality at 0.05 µg/cm2 turned out to be 0%, the mortality at 0.5 µg/cm2 turned out to be 100% and the mortality at 5 µg/cm2 amounted to 100%. In test [2], the mortality at 0.05 µg/cm2 is 0%, the mortality at 0.5 µg/cm2 was 100% and the mortality at 5 µg/cm2 is 100%.

On to `C[C@@H](NC(=O)c1ccc(/C(F)=C/C(c2cc(Cl)c(Cl)c(Cl)c2)C(F)(F)F)cc1)C(=O)NCC(F)(F)F` (stereo partly drawn) [FC2, N—((R)-1-Oxo-1-((2,2,2-trifluoroethyl)amino)propan-2-yl)-4-((Z)-1,4,4,4-tetrafluoro-3-(3,4,5-trichlorophenyl)but-1-en-1-yl)benzamide], for which, in test [1], the mortality at 0.05 µg/cm2 came out at 0%, the mortality at 0.5 µg/cm2 turned out to be 100% and the mortality at 5 µg/cm2 was 100%. In test [2], the mortality at 0.05 µg/cm2 was 0%, the mortality at 0.5 µg/cm2 worked out at 100% and the mortality at 5 µg/cm2 worked out at 100%.
